The supplement of paper PMC6723410

test system: GUMC-403; test: viability at highest tested concentration (max response) relative to DMSO (% of DMSO control); higher = less cytotoxic; details: library / dose series: MIPE library, 11-point 1:3 dilution; top concentration 13.4 µM; 48 h
Method in brief: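 This value is viability at the highest tested concentration relative to vehicle control. GUMC-403 papilloma cells from a patient, grown by conditional reprogramming, were plated at 700/well in 1536-well plates and given 23 nL of compound by pin tool for 48 h. CellTiter-Glo luminescence on a ViewLux was normalised with vehicle wells at 100% and empty wells at 0%.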

`O.O.CCN1CCN(C(=O)N[C@H](C(=O)N[C@H]2[C@@H]3SC\C(=C(/N3C2=O)C(O)=O)CSC4=NN=N[N]4C)C5=CC=C(O)C=C5)C(=O)C1=O` gave a viability of 130.

same assay, conditions: library / dose series: MIPE library, 11-point 1:3 dilution; top concentration 34.6 µM; 48 h

Compound `Nc1ncnc2c1ncn2[C@@H]1O[C@@H](CO)[C@H](O)[C@@H]1O` has a viability of 118.

same assay, conditions: library / dose series: MIPE library, 11-point 1:3 dilution; top concentration 46.1 µM; 48 h

First: CCOC(=O)/C=C/[C@H](C[C@@H]1CCNC1=O)NC(=O)[C@@H](CC(=O)[C@@H](NC(=O)c1cc(C)on1)C(C)C)Cc1ccc(F)cc1
Second: CCOc1cc(N)c(Cl)cc1C(=O)NCC1CN(Cc2ccc(F)cc2)CCO1 (configuration not stated)
The viability of the first is higher: 142 for the first, 85.7 for the second.

Compared with `C#CCC(Cc1cnc2nc(N)nc(N)c2n1)c1ccc(C(=O)N[C@@H](CCC(=O)O)C(=O)O)cc1` (some centres not stated), `COC(=O)[C@H](Cc1ccccc1)NC(=O)[C@@H](N)CC(=O)O` is higher in viability: 95.2 for the first, 102 for the second.

Compared with `CN(C)CCN(C)CCc1ccc(Cl)c(Cl)c1`, `CN(C)CCN1C(=O)c2cccc3cc(N)cc(c23)C1=O` is lower in viability: 124 for the first, 62.2 for the second.

Going from `C/C=C(/C)C(=O)O[C@H]1C(C)=C[C@]23C(=O)[C@@H](C=C(CO)[C@@H](O)[C@]12O)[C@H]1[C@@H](C[C@H]3C)C1(C)C` to `CCN1C[C@]2(OC(=O)c3ccccc3NC(C)=O)CC[C@H](OC)[C@@]34[C@@H]2C[C@@H]([C@@H]13)[C@@]1(O)C[C@H](OC)[C@H]2C[C@@H]4[C@]1(O)[C@H]2OC`, the viability rises from 106 to 139.

Compared with `CNNCc1ccc(C(=O)NC(C)C)cc1`, `COc1cc(CNC(=O)CCCC/C=C/C(C)C)ccc1O` is lower in viability: 149 for the first, 128 for the second.

First: CC[C@@]1(O)C(=O)OC\C2=C1\C=C3/N(CC4=CC5=C(C=CC(=C5CN(C)C)O)N=C34)C2=O
Second: CCC1=C2C=C(OC(=O)N3CCC(CC3)N4CCCCC4)C=CC2=NC\5=C1CN6C(=O)\C7=C(/C=C56)[C@@](O)(CC)C(=O)OC7
The viability of the first is higher: 66.5 for the first, 56.1 for the second.

Going from `OC[C@@H](O)[C@@H](O)[C@H](O)[C@@H](O)CO` to `CC(C)C[C@H](NC(=O)[C@@H](O)[C@H](N)Cc1ccccc1)C(=O)O`, the viability falls from 128 to 102.

Going from `C/C(O)=C(\C#N)C(=O)Nc1cc(Br)ccc1Br` to `N[C@@H](Cc1c[nH]c2ccc(O)cc12)C(=O)O`, the viability rises from 101 to 106.

First: CCN1CCN(c2ccc(Nc3cc(N(C)C(=O)Nc4c(Cl)c(OC)cc(OC)c4Cl)ncn3)cc2)CC1
Second: COc1cc(N2CCN(C)CC2)ccc1Nc1nc(N)c(C(=O)c2c(Cl)cccc2Cl)s1
The viability of the first is lower: 117 for the first, 120 for the second.

Compared with `CNC1CCC(N(Cc2cccc(-c3ccncc3)c2)C(=O)c2sc3ccccc3c2Cl)CC1` (configuration not stated), `CN1CCCC(CC1)N2\N=C(CC3=CC=C(Cl)C=C3)/C4=C(C=CC=C4)C2=O` (configuration not stated) is lower in viability: 110 for the first, 78.8 for the second.

First: Cc1ncc([N+](=O)[O-])n1CCO
Second: CCOC(=O)N1CCN(/[N+]([O-])=N/Oc2ccc([N+](=O)[O-])cc2C#N)CC1
The viability of the first is higher: 106 for the first, 92.1 for the second.

First: COC1=CC=C(C(=C1)OC(C)C)C/2=N/[C@@H]([C@@H](N2C(=O)N3CCNC(=O)C3)C4=CC=C(Cl)C=C4)C5=CC=C(Cl)C=C5
Second: CCOC\1=C(/C(=O)NC2=CC=C(OC3=C(Cl)C(=NC=C3)N)C(=C2)F)C(=O)N(\C=C1)C4=CC=C(F)C=C4
The viability of the first is higher: 121 for the first, 77.8 for the second.

`CC(C)C[C@H](CC(=O)O)C(=O)N[C@@H](Cc1c[nH]c2ccccc12)C(=O)N[C@@H](C)c1ccccc1` and `OC(=O)CNC(=O)\C1=C(/O)C2=CC=CC=C2N(CC3=CC=CC=C3)C1=O` are the same in viability: 108 for the first, 108 for the second.

First: CN1CCCN(C(=O)c2cccc(-c3ccc(/C=C4/C(=O)Nc5ccc(Cl)cc54)o3)c2)CC1
Second: CN1CCN(CC1)C2=CC3=C([NH]C(=N3)C/4=C(\N)C5=C(F)C=CC=C5NC4=O)C=C2
The viability of the first is lower: 97.7 for the first, 123 for the second.

First: O=C(O)c1ccccc1C(=O)Nc1ccc(-c2ccccc2)cc1
Second: CCCc1nc2c(C)cc(-c3nc4ccccc4n3C)cc2n1Cc1ccc(-c2ccccc2C(=O)O)cc1
The viability of the first is lower: 111 for the first, 118 for the second.

Compared with `OCc1ccccc1O[C@@H]1O[C@H](CO)[C@@H](O)[C@H](O)[C@H]1O`, `OC[C@H]1O[C@@H](Oc2ccc(O)cc2)[C@H](O)[C@@H](O)[C@@H]1O` is lower in viability: 151 for the first, 99.9 for the second.

Compared with `CC1=CC=C2N=C(NC(=O)CS\C3=N\C4=C(\SCC4)C(=O)N3C5=CC=CC=C5)SC2=C1`, `O=C(Nc1ccccc1-c1cn2c(CN3CCNCC3)csc2n1)c1cnc2ccccc2n1` is lower in viability: 109 for the first, 81.3 for the second.

Compared with `COc1ccc2[nH]cc(CCNC(C)=O)c2c1`, `Cc1ccc(C)c(OCCCC(C)(C)C(=O)O)c1` is higher in viability: 106 for the first, 108 for the second.

Compared with `Cc1cnn(C)c1C(=O)Nc1cc(Nc2ccc3c(/C=C/c4ccccn4)n[nH]c3c2)ccc1F`, `CN1\C=N/C2=CC=C(NC3=CC(=CC=C3C)NC(=O)C4=CC(=CC=C4)C(C)(C)C#N)C=C2C1=O` is lower in viability: 125 for the first, 96.2 for the second.

First: C\C1=C(\C=C(C#N)/C(=O)N1)C2=C[N]3C=CN=C3C=C2
Second: COc1ccc(-c2nc3cc(C4=NNC(=O)CC4C)ccc3[nH]2)cc1 (configuration not stated)
The viability of the first is lower: 96 for the first, 119 for the second.

Going from `CC(=O)[C@H]1CC[C@H]2[C@@H]3C/C=C4/C[C@@H](O)CC[C@]4(C)[C@H]3CC[C@]12C` to `C[C@]12CC[C@H]3[C@@H](CCC/4=C/C(=O)CC[C@]34C)[C@@H]1CC[C@@H]2OC(=O)CCC5CCCC5`, the viability falls from 115 to 102.

Compared with `C=C1C[C@@]2(O)O[C@@]3(C[C@H]2C(C)C)[C@@H](C)CC[C@@H]13`, `CC(C)N(CCNC(=O)CN1CCCC1=O)C(C)C` is lower in viability: 127 for the first, 103 for the second.

Going from `N[C@H]2CN(CC12CC1)c3c(F)cc4c(c3Cl)[N@@](C=C(C4=O)C(=O)O)C5C[C@H]5F` (some centres not stated) to `CCN1\C=C(\C(O)=O)C(=O)C2=C1C=C(N3CCNCC3)C(=C2)F`, the viability rises from 103 to 121.

Compared with `CN(C)CC(C)(C)CNc1nn2c(-c3ccccc3)nnc2cc1C1CCC1`, `CN(C(=O)c1ccc(F)cc1C(F)(F)F)C1CCN(c2nnc(-c3ccnn3C)c3ccccc23)CC1` is lower in viability: 108 for the first, 78.1 for the second.

Going from `CCn1c(-c2nonc2N)nc2cncc(CNC3CCNCC3)c21` to `N[S+](=O)([O-])c1ccc(Nc2nc(OCC3CCCCC3)c3[nH]cnc3n2)cc1`, the viability falls from 121 to 46.9.

First: CN1C2=CC(=O)/C(=N/NC(N)=O)C=C2CC1S(=O)(=O)[O-].[Na+] (configuration not stated)
Second: COc1cc(C(=O)NS(=O)(=O)c2ccccc2C)ccc1Cc1cn(C)c2ccc(NC(=O)OC3CCCC3)cc12
The viability of the first is higher: 102 for the first, 28.5 for the second.

Compared with `Cn1c(=O)n(-c2ccc(C(C)(C)C#N)cc2)c2c3cc(-c4cnc5ccccc5c4)ccc3ncc21`, `CNC(=O)c1ccc(-c2cnc3ncc(Cc4ccc5ncccc5c4)n3n2)cc1F` is higher in viability: 73.3 for the first, 103 for the second.

Compared with `CC(C)[C@H](CO)Nc1nc(Nc2ccc(C(=O)O)c(Cl)c2)c2ncn(C(C)C)c2n1`, `COc1cc2nccc(Oc3ccc(NC(=O)Nc4cc(C)on4)c(Cl)c3)c2cc1OC` is lower in viability: 75.1 for the first, 73.5 for the second.

Going from `Cn1c(=O)c2c(ncn2C)n(C)c1=O.O=C(O)CC(O)(CC(=O)O)C(=O)O` to `CC(C)CC(=O)N[C@H](C(=O)N[C@H](C(=O)N[C@@H](CC(C)C)[C@@H](O)CC(=O)N[C@@H](C)C(=O)N[C@@H](CC(C)C)[C@@H](O)CC(=O)O)C(C)C)C(C)C`, the viability rises from 98.9 to 99.5.

Compared with `C[N]1C=C(C2=C1C=CC=C2)\C3=C(\C(=O)NC3=O)C4=C5CC(CN)CC[N]5C6=C4C=CC=C6` (configuration not stated), `O=C1Cc2cc(CCN3CCN(c4nsc5ccccc45)CC3)c(Cl)cc2N1` is higher in viability: 42.9 for the first, 100 for the second.

Going from `Clc1cc(Cl)cc(CNc2ncncc2-c2ccc3c(c2)OCO3)c1` to `NC(=O)c1ccc(-c2nc(-c3ccc4c(c3)OCCO4)c(-c3ccccn3)[nH]2)cc1`, the viability rises from 99.6 to 131.

Compared with `O=C(Nc1cccc(Br)c1)c1cccc([S+](=O)([O-])N2CCCCCC2)c1`, `Cc1ccccc1C(C(=O)NC1CCCCC1)N(C(=O)Cn1ccnc1C)c1cccc(F)c1` (configuration not stated) is higher in viability: 111 for the first, 120 for the second.

Going from `CC(C)C[C@H](CN)CC(=O)O` to `CC(C[N+](C)(C)C)OC(N)=O` (configuration not stated), the viability falls from 117 to 101.

Compared with `CCc1cc2c(cc1N1CCC(N3CCOCC3)CC1)C(C)(C)c1[nH]c3cc(C#N)ccc3c1C2=O`, `CC1(C)CCC(=C(\C1)C2=CC=C(Cl)C=C2)/CN3CCN(CC3)C4=CC(=C(C=C4)C(=O)N[S+]([O-])(=O)C5=CC=C(NCC6CCOCC6)C(=C5)[N+]([O-])=O)OC7=CN=C8[NH]C=CC8=C7` is higher in viability: 97.8 for the first, 105 for the second.

Going from `CCN(CC)CCCCNc1ncc2c(n1)N(C)C(=O)N(c1c(Cl)c(OC)cc(OC)c1Cl)C2` to `CCCN[S+](=O)([O-])Nc1ncnc(OCCOc2ncc(Br)cn2)c1-c1ccc(Br)cc1`, the viability rises from 99.8 to 122.

First: NC12CC3CC(CC(C3)C1)C2
Second: C[C@]12CC[C@@H]3c4ccc(O)cc4CC[C@H]3[C@@H]1C[C@@H](O)[C@@H]2O
The viability of the first is higher: 136 for the first, 87 for the second.

First: NC(=O)c1cnccn1
Second: O=C(NCC[S+](=O)([O-])c1ccc(C(F)(F)F)cn1)c1ccc(Cl)cc1
The viability of the first is higher: 131 for the first, 107 for the second.

Going from `OC(=O)\C1=C\N(C2=CC=C(F)C=C2)C3=C(C=C(F)C(=C3)N4CCNCC4)C1=O` to `O=C1C[C@@H](c2ccc(O)cc2)Oc2cc(O)cc(O)c21`, the viability falls from 120 to 113.

Going from `OC1=CC2=C(C(=C1)O)C(=O)\C(=C(/O2)C3=CC(=C(O)C(=C3)O)O)O` to `OC[C@H]1O[C@H](C[C@@H]1O)N2\C=C(F)/C(=O)NC2=O`, the viability falls from 102 to 65.7.

Going from `C[C@H]1[C@@H](OC(=O)CCC(=O)O)O[C@@H]2O[C@@]3(C)CC[C@H]4[C@H](C)CC[C@@H]1[C@@]24OO3` to `CC(=O)N(C)C1(c2ccccc2)CCN(CCC[C@]2(c3ccc(Cl)c(Cl)c3)CCCN(C(=O)c3ccccc3)C2)CC1`, the viability falls from 97.7 to 96.7.
